From patent publication US20070128217A1 (priority 2003, published 2007)

Legend:
[1] = test system: rabbit serum obtained by immunizing a rabbit with the SARS-CoV strain Frankfurt 1; type: binding; set-up: Binding of a rabbit serum to linear peptides / Binding of a rabbit serum to looped peptides / Rabbit serum linear peptides / Rabbit serum looped peptides / Binding of a rabbit serum to linear peptides of protein N of SARS-CoV Urbani (Rabbit serum linear peptides) / Binding of a rabbit serum to looped/cyclic peptides of protein N of SARS-CoV Urbani (Rabbit serum looped peptides): unit not given here
[2] = test system: antibodies in sera from SARS patients (sera 1a, 1b, 2, 6, 37, 62, London, SARS-yellow, SARS-green); type: binding, human; set-up: Binding of serum 6 to linear peptides of protein X1 of SARS-CoV Urbani / Binding of serum 37 to linear peptides of protein X1 of SARS-CoV Urbani / Binding of serum 6 to looped/cyclic peptide (PEPSCAN-ELISA) / Binding of serum 37 to looped/cyclic peptide (PEPSCAN-ELISA) / Binding of serum 37 to looped/cyclic peptides of protein X1 of SARS-CoV Urbani / Binding of serum 6 to linear peptides of protein X2 / Binding of serum 37 to linear peptides of protein X2 / Binding of serum 37 to looped/cyclic peptides of protein X2 of SARS-CoV Urbani / Binding of serum 6 to linear peptides of protein M of SARS-CoV Urbani / Binding of serum 37 to linear peptides of protein M of SARS-CoV Urbani / Binding of serum 6 to looped/cyclic peptides of protein M of SARS-CoV Urbani / Binding of serum 37 to looped/cyclic peptides of protein M of SARS-CoV Urbani / Binding of serum 6 to linear peptides of protein X3 of SARS-CoV Urbani / Binding of serum 37 to linear peptides of protein X3 of SARS-CoV Urbani / Binding of serum 37 to looped/cyclic peptides of protein X3 of SARS-CoV Urbani / Binding of serum 6 to linear peptides of protein X4 of SARS-CoV Urbani / Binding of serum 37 to linear peptides of protein X4 of SARS-CoV Urbani / Binding of serum 37 to looped/cyclic peptides of protein X4 of SARS-CoV Urbani / Binding of serum 6 to linear peptides of protein X5 of SARS-CoV Urbani / Binding of serum 37 to linear peptides of protein X5 of SARS-CoV Urbani / Binding of serum 37 to looped/cyclic peptides of protein X5 of SARS-CoV Urbani / Binding of serum 6 to linear peptides of protein N of SARS-CoV Urbani / Binding of serum 37 to linear peptides of protein N of SARS-CoV Urbani / Binding of serum 6 to linear peptide (PEPSCAN-ELISA) / Binding of serum 1a to looped/cyclic peptides of protein N of SARS-CoV Urbani / Binding of serum 1b to looped/cyclic peptides of protein N of SARS-CoV Urbani / Binding of serum 2 to looped/cyclic peptides of protein N of SARS-CoV Urbani / Binding of serum 6 to looped/cyclic peptides of protein N of SARS-CoV Urbani / Binding of serum 37 to looped/cyclic peptides of protein N of SARS-CoV Urbani / Binding of serum 62 to looped/cyclic peptides of protein N of SARS-CoV Urbani / Binding of serum London to looped/cyclic peptides of protein N of SARS-CoV Urbani / Binding of serum SARS-green to looped/cyclic peptides of protein N of SARS-CoV Urbani: unit not given here
[3] = test system: control sera (pooled serum of ten healthy LUMC hospital workers; commercial negative donor pooled serum from the Dutch bloodbank); type: binding, human; set-up: Binding of Control serum LUMC to linear peptides / Binding of Control serum Blood-bank to linear peptides / Binding of Control serum LUMC to looped peptides / Binding of Control Serum Blood-Bank to Looped peptides / Binding of Control serum LUMC to linear peptides of the protein M of SARS-CoV Urbani / Binding of Control serum Blood-bank to linear peptides of the protein M of SARS-CoV Urbani / Binding of Control serum LUMC to looped peptides of the protein M of SARS-CoV Urbani / Binding of Control Serum Blood-Bank to Looped peptides of the protein M of SARS-CoV Urbani: unit not given here

## HSSSLTSLLKTHRMC
[1]
  Binding of a rabbit serum to linear peptides: 0.2
  Binding of a rabbit serum to looped peptides: 0.5
[2]
  Binding of serum 1a to linear peptides of protein X2: 0.6
  Binding of serum 1a to looped/cyclic peptides of protein X2 of SARS-CoV Urbani: 0.4
  Binding of serum 1b to linear peptides of protein X2: 0.5
  Binding of serum 1b to looped/cyclic peptides of protein X2 of SARS-CoV Urbani: 0.4
  Binding of serum 2 to linear peptides of protein X2: 0.3
  Binding of serum 2 to looped/cyclic peptides of protein X2 of SARS-CoV Urbani: 0.3
  Binding of serum 6 to linear peptides of protein X2: 0.5
  Binding of serum 6 to looped/cyclic peptides of protein X2 of SARS-CoV Urbani: 0.2
  Binding of serum 37 to linear peptides of protein X2: 0.5
  Binding of serum 37 to looped/cyclic peptides of protein X2 of SARS-CoV Urbani: 0.3
  Binding of serum 62 to linear peptides of protein X2: 0.6
  Binding of serum 62 to looped/cyclic peptides of protein X2 of SARS-CoV Urbani: 0.4
  Binding of serum London to linear peptides of protein X2: 0.5
  Binding of serum London to looped/cyclic peptides of protein X2 of SARS-CoV Urbani: 0.2
  Binding of serum SARS-green to linear peptides of protein X2: 0.5
  Binding of serum SARS-green to looped/cyclic peptides of protein X2 of SARS-CoV Urbani: 0.3
  Binding of serum SARS-yellow to linear peptides of protein X2: 0.4
  Binding of serum SARS-yellow to looped/cyclic peptides of protein X2 of SARS-CoV Urbani: 0.4
[3]
  Binding of Control Serum Blood-Bank to Looped peptides: 0.5
  Binding of Control serum Blood-bank to linear peptides: 0.8
  Binding of Control serum LUMC to linear peptides: 0.4
  Binding of Control serum LUMC to looped peptides: 0.5

## HTIDGSSGVANPAMD
[1]
  Binding of a rabbit serum to linear peptides: 0.1
  Binding of a rabbit serum to looped peptides: 0.4
[2]
  Binding of serum 1a to linear peptides of protein X1 of SARS-CoV Urbani: 0.7
  Binding of serum 1a to looped/cyclic peptides of protein X1 of SARS-CoV Urbani: 0.3
  Binding of serum 1b to linear peptides of protein X1 of SARS-CoV Urbani: 0.7
  Binding of serum 1b to looped/cyclic peptides of protein X1 of SARS-CoV Urbani: 0.2
  Binding of serum 2 to linear peptides of protein X1 of SARS-CoV Urbani: 0.5
  Binding of serum 2 to looped/cyclic peptides of protein X1 of SARS-CoV Urbani: 0.1
  Binding of serum 6 to linear peptides of protein X1 of SARS-CoV Urbani: 0.5
  Binding of serum 6 to looped/cyclic peptides of protein X1 of SARS-CoV Urbani: 0.1
  Binding of serum 37 to linear peptides of protein X1 of SARS-CoV Urbani: 0.7
  Binding of serum 37 to looped/cyclic peptides of protein X1 of SARS-CoV Urbani: 0.3
  Binding of serum 62 to linear peptides of protein X1 of SARS-CoV Urbani: 0.7
  Binding of serum 62 to looped/cyclic peptides of protein X1 of SARS-CoV Urbani: 0.2
  Binding of serum London to linear peptides of protein X1 of SARS-CoV Urbani: 0.3
  Binding of serum London to looped/cyclic peptides of protein X1 of SARS-CoV Urbani: 0.1
  Binding of serum SARS-green to linear peptides of protein X1 of SARS-CoV Urbani: 0.6
  Binding of serum SARS-green to looped/cyclic peptides of protein X1 of SARS-CoV Urbani: 0.1
  Binding of serum SARS-yellow to linear peptides of protein X1 of SARS-CoV Urbani: 0.4
  Binding of serum SARS-yellow to looped/cyclic peptides of protein X1 of SARS-CoV Urbani: 0.1
[3]
  Binding of Control Serum Blood-Bank to Looped peptides: 0.3
  Binding of Control serum Blood-bank to linear peptides: 0.4
  Binding of Control serum LUMC to linear peptides: 0.5
  Binding of Control serum LUMC to looped peptides: 0.2

## IAIWNLDVIISSIVR
[1]
  Rabbit serum linear peptides: 0.3
  Rabbit serum looped peptides: 0.3
[2]
  Binding of serum 1a to linear peptides of protein X3 of SARS-CoV Urbani: 0.7
  Binding of serum 1a to looped/cyclic peptides of protein X3 of SARS-CoV Urbani: 0.7
  Binding of serum 1b to linear peptides of protein X3 of SARS-CoV Urbani: 0.5
  Binding of serum 1b to looped/cyclic peptides of protein X3 of SARS-CoV Urbani: 0.3
  Binding of serum 2 to linear peptides of protein X3 of SARS-CoV Urbani: 0.6
  Binding of serum 2 to looped/cyclic peptides of protein X3 of SARS-CoV Urbani: 0.6
  Binding of serum 6 to linear peptides of protein X3 of SARS-CoV Urbani: 0.5
  Binding of serum 6 to looped/cyclic peptides of protein X3 of SARS-CoV Urbani: 0.4
  Binding of serum 37 to linear peptides of protein X3 of SARS-CoV Urbani: 0.5
  Binding of serum 37 to looped/cyclic peptides of protein X3 of SARS-CoV Urbani: 0.6
  Binding of serum 62 to linear peptides of protein X3 of SARS-CoV Urbani: 0.6
  Binding of serum 62 to looped/cyclic peptides of protein X3 of SARS-CoV Urbani: 0.5
  Binding of serum London to linear peptides of protein X3 of SARS-CoV Urbani: 0.6
  Binding of serum London to looped/cyclic peptides of protein X3 of SARS-CoV Urbani: 0.2
  Binding of serum SARS-green to linear peptides of protein X3 of SARS-CoV Urbani: 0.3
  Binding of serum SARS-green to looped/cyclic peptides of protein X3 of SARS-CoV Urbani: 0.0
  Binding of serum SARS-yellow to linear peptides of protein X3 of SARS-CoV Urbani: 0.4
  Binding of serum SARS-yellow to looped/cyclic peptides of protein X3 of SARS-CoV Urbani: 0.6
[3]
  Binding of Control Serum Blood-Bank to Looped peptides of the protein X3 of SARS-CoV Urbani: 0.7
  Binding of Control serum Blood-bank to linear peptides of the protein X3 of SARS-CoV Urbani: 0.6
  Binding of Control serum LUMC to linear peptides of the protein X3 of SARS-CoV Urbani: 0.5
  Binding of Control serum LUMC to looped peptides of the protein X3 of SARS-CoV Urbani: 0.7

## ICNLLLLFVTIYSHL
[1]
  Binding of a rabbit serum to linear peptides: 0.2
  Binding of a rabbit serum to looped peptides: 0.5
[2]
  Binding of serum 1a to linear peptides of protein X1 of SARS-CoV Urbani: 0.6
  Binding of serum 1a to looped/cyclic peptide (PEPSCAN-ELISA): 0.4
  Binding of serum 1b to linear peptides of protein X1 of SARS-CoV Urbani: 0.6
  Binding of serum 1b to looped/cyclic peptide (PEPSCAN-ELISA): 0.3
  Binding of serum 2 to linear peptides of protein X1 of SARS-CoV Urbani: 0.5
  Binding of serum 2 to looped/cyclic peptide (PEPSCAN-ELISA): 0.4
  Binding of serum 6 to linear peptides of protein X1 of SARS-CoV Urbani: 0.4
  Binding of serum 6 to looped/cyclic peptide (PEPSCAN-ELISA): 0.2
  Binding of serum 37 to linear peptides of protein X1 of SARS-CoV Urbani: 0.6
  Binding of serum 37 to looped/cyclic peptide (PEPSCAN-ELISA): 0.4
  Binding of serum 62 to linear peptides of protein X1 of SARS-CoV Urbani: 0.5
  Binding of serum 62 to looped/cyclic peptide (PEPSCAN-ELISA): 0.5
  Binding of serum London to linear peptides of protein X1 of SARS-CoV Urbani: 0.2
  Binding of serum London to looped/cyclic peptide (PEPSCAN-ELISA): 0.2
  Binding of serum SARS-green to linear peptides of protein X1 of SARS-CoV Urbani: 0.3
  Binding of serum SARS-green to looped/cyclic peptide (PEPSCAN-ELISA): 0.2
  Binding of serum SARS-yellow to linear peptides of protein X1 of SARS-CoV Urbani: 0.4
  Binding of serum SARS-yellow to looped/cyclic peptide (PEPSCAN-ELISA): 0.4
[3]
  Binding of Control Serum Blood-Bank to Looped peptides: 0.5
  Binding of Control serum Blood-bank to linear peptides: 0.5
  Binding of Control serum LUMC to linear peptides: 0.5
  Binding of Control serum LUMC to looped peptides: 0.4
